Test results from patent US10172864B2, “Therapeutically active compounds and their methods of use” (AGIOS PHARMACEUTICALS, INC, priority 2013, dated 2019).

Biological target: IDH1 wt/IDH1 R132H heterodimer (Homo sapiens (Human), UniProt O75874, R132H)
Assay: IDH1 wt/IDH1 R132H heterodimer enzymatic assay, NADPH depletion with diaphorase/resazurin readout
Type: biochemical
Conditions: 300 μM NADP (saturated)
Description: The following describes the experimental procedures that can be used to obtain data on columns 2 and 4 of Table 4 and column 2 of Table 5.
In the primary reaction, the reduction of α-KG acid to 2-HG is accompanied by a concomitant oxidation of NADPH to NADP. The amount of NADPH remaining at the end of the reaction time is measured in a secondary diaphorase/resazurin reaction in which the NADPH is consumed in a 1:1 molar ratio with the conversion of resazurin to the highly fluorescent resorufin.
The mixture of compound, enzyme, and cofactor is pre-incubated at room temperature for 1 hr prior to the addition of alpha-ketoglutarate. To perform the secondary reaction, 10 uL of 1× buffer containing 36 μg/ml diaphorase and […] resazurin is added to the primary reaction and incubated for a further 5 minutes at 25° C. […] Compounds or compound dilutions are prepared in 100% DMSO concentration and diluted 1:50 into the final reaction. […] IC50s are determined.
IDH1 or IDH2 wildtype (wt) and mutant heterodimers are expressed and purified by methods known in the art. […] Host cell contaminants are removed by washing the column with equilibration buffer followed by equilibration buffer containing 20 mM imidazole and 60 mM imidazole to baseline. […]

IDH1 wt/IDH1 R132H heterodimer, sequence (O75874 whole entry R132H): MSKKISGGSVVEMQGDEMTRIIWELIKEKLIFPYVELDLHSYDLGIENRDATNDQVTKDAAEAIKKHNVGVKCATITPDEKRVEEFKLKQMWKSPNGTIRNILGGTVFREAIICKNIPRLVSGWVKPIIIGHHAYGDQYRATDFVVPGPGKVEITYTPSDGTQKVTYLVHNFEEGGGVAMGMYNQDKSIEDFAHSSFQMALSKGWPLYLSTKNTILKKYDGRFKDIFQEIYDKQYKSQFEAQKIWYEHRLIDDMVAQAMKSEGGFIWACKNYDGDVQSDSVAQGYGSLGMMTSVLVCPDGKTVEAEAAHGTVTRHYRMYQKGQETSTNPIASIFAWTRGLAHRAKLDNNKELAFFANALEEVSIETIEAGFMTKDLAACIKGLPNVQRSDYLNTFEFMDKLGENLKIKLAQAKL
IDH1 wt/IDH1 R132H heterodimer, sequence (O75874 whole entry, stated change not applied): as the sequence (O75874 whole entry R132H) above, with H132R counted along it

FC1(F)CCC(Nc2nc(NC3CCC(F)(F)CC3)nc(-c3nc(C(F)(F)F)cs3)n2)CC1 [Compound 357]
IC50: 50 to 100 nM
